Measured values: patent US6472401B2, “Methods for the treatment of vascular disorders” (Schering Corporation, priority 1999, dated 2002)
Read-outs that look alike come from different tables or passages of the source.

How the values were obtained:
[1] = for recurrence of symptoms of depression: administered indefinitely
[2] = Administration of antihistamine to patients suffering from clinical depression (Example 2); conditions: for recurrence of symptoms of depression: patients known to have suffered from depression, not currently experiencing symptoms, administered indefinitely; for reduction of symptoms of depression: patients suffering from depression; for recurrence or worsening of symptoms of depression: responders continue treatment at their respective dosage level
Description: Patients suffering from clinical depression are administered a non-sedating antihistamine (loratadine) or a low-sedating antihistamine (cetirizine) to relieve the symptoms of depression. Six treatment groups are contemplated.

[3] = patients known to have suffered from depression and subject to allergic rhinitis, no current symptoms of either
[4] = patients known to have suffered from depression and suffering from allergic rhinitis, no current depression symptoms
[5] = patients suffering from depression and allergic rhinitis
[6] = patients suffering from depression, subject to allergic rhinitis but not currently suffering from it
[7] = responders subject to allergic rhinitis but without current rhinitis symptoms continue treatment at their respective dosage level
[8] = responders suffering from allergic rhinitis continue treatment at their respective dosage level

CCOC(=O)N1CCC(=C2c3ccc(Cl)cc3CCc3cccnc32)CC1 [loratadine]
recurrence of symptoms of depression [1, 3]: a significant number of patients do not experience recurrence of symptoms of depression
recurrence of symptoms of depression [1, 4]: a significant number of patients do not experience recurrence of symptoms of depression
reduction of symptoms of depression [1, 5]: A significant number of patients experience a reduction of their symptoms of depression
reduction of symptoms of depression [1, 6]: A significant number of patients experience a reduction of their symptoms of depression
recurrence or worsening of symptoms of depression [1, 7]: a significant number of patients do not experience recurrence or worsening of symptoms of depression
recurrence or worsening of symptoms of depression [1, 8]: a significant number of patients do not experience recurrence or worsening of symptoms of depression
recurrence of symptoms of depression [2]: a significant number of patients do not experience recurrence of symptoms of depression
reduction of symptoms of depression [2]: A significant number of patients experience a reduction of their symptoms of depression
recurrence or worsening of symptoms of depression [2]: a significant number of patients do not experience recurrence or worsening of symptoms of depression

O=C(O)COCCN1CCN(C(c2ccccc2)c2ccc(Cl)cc2)CC1 (stereo not drawn) [cetirizine]
recurrence of symptoms of depression [1, 3]: a significant number of patients do not experience recurrence of symptoms of depression
recurrence of symptoms of depression [1, 4]: a significant number of patients do not experience recurrence of symptoms of depression
reduction of symptoms of depression [1, 5]: A significant number of patients experience a reduction of their symptoms of depression
reduction of symptoms of depression [1, 6]: A significant number of patients experience a reduction of their symptoms of depression
recurrence or worsening of symptoms of depression [1, 7]: a significant number of patients do not experience recurrence or worsening of symptoms of depression
recurrence or worsening of symptoms of depression [1, 8]: a significant number of patients do not experience recurrence or worsening of symptoms of depression
recurrence of symptoms of depression [2]: a significant number of patients do not experience recurrence of symptoms of depression
reduction of symptoms of depression [2]: A significant number of patients experience a reduction of their symptoms of depression
recurrence or worsening of symptoms of depression [2]: a significant number of patients do not experience recurrence or worsening of symptoms of depression
